Measured values from patent publication US5219884A, “Immunosuppressant” (Taito Co., Ltd., priority 1990, dated 1993).
Values after ≈ are worked out from the molar mass of the structure shown. Read-outs that look alike come from different tables or passages of the source.

How the values were obtained:
[1] = system: human allogenic MLR (peripheral blood lymphocytes); experiment: human allogenic MLR-suppressive activity; type: cell-based
Description: The human allogenic MLR-suppressive activity was assayed as follows:
Human peripheral blood lymphocytes obtained by Ficoll-Paque density gradient centrifugation of normal human peripheral blood were suspended in the RPMI1640 medium supplemented with 10% FCS, placed in plastic dishes, and incubated at 37° C. in an atmosphere of 5% carbon dioxide for 2 hours. After termination of incubation, the supernatant after gentle pipetting was harvested and centrifuged (1000 rpm, for 5 minutes) to obtain plastic-nonadherent cells. The plastic-nonadherent cells were allowed to pass through a nylon-wool column to give nylon-nonadherent cells, and the concentration of the cell suspension was adjusted to 4×10^6 cells/ml by using the RPMI1640 culture medium supplemented with 10% FCS, and used as the responder cell suspension.
The plastic-adherent cells were removed from the plastic dish by vigorous pipetting after addition of phosphate buffered saline supplemented with 5% FCS and 0.02% disodium ethylenediamine-tetraacetic acid (EDTA). The plastic-adherent cells were treated with 40 μg/ml of mitomycin C at 37° C. for 60 minutes, washed three times, and suspended to the concentration of 4×10^6 cells/ml in the RPMI1640 culture medium supplemented with 10% FCS. The resultant suspension was used as the stimulator cell suspension. Fifty μl of the responder cell suspension from the donor A or C was mixed with 50 μl of the stimulator cell suspension from the donor B or D, to which 100 μl of the test substance was added, and cultured at 37° C. in the an atmosphere 5% carbon dioxide for 5 days.
After termination of the culture, 1.0 μCi/well of ^3 H-thymidine was added, and after 18 hours of culture, the cells were harvested by a cell-harvester. The radioactivity incorporated into the cells was measured by a liquid scintillation counter as the index of blastogenic response of lymphocytes in human allogenic MLR. The suppression of human allogenic MLR was evaluated by calculating the percent suppression by the following formula. [formula]

[2] = system: IL2-dependent mouse cell line CTLL-2; experiment: suppression of IL-2 induced 3H-thymidine incorporation of CTLL-2; type: cell-based; settings: 72 hrs, second run (control 30168 cpm)
Description: IL2-dependent mouse cell line CTLL-2 cells were suspended in the RPMI1640 culture medium supplemented with 30% FCS to a concentration of 2×10^5 cells/ml. The suspension (50 μl) and 50 μl of concanavalin A-stimulated rat spleen cell culture supernatants containing IL2 were added to each well of 96-well microculture plates in which 100 μl of the test substance had been placed. After culturing at 37° C. in an atmosphere of 5% carbon dioxide for 20, 44, or 68 hours, 0.5 μCi/well of ^3 H-thymidine was added, and cultured for 4 hours under the same conditions. After termination of the culture, the cells were harvested by a cell harvester, and the radioactivity incorporated into the cells was measured by a liquid scintillation counter.

[3] = system: anti-sheep red blood cell antibody production in BALB/c mice; experiment: suppression of mouse anti-sheep red blood cell antibody production (PFC); type: in vivo; settings: Experiment 2; 10 mg/kg/day i.p., 4 days
Description: (§1) Males 5- to 7-week-old BALB/c mice were immunized with sheep red blood cells (SRBC), and the spleen was resected three or four days later. By counting the plaque forming cells (PFC), suppressive effect on the production of the anti-sheep red blood cell antibody was examined as follows.
(§2) BALB/c mice were immunized with SRBC (1×10^7 cells/mouse, intravenous administration), and ISP-I in the Example 1 was administered intraperitoneally for 4 consecutive days from the day of immunization. Four days after immunization (the next day of the final administration), the spleen was resected and the anti-sheep red blood cell antibody-producing cells were determined by the direct plaque method. At the same time the body weight of the mouse, wet weight of the thymus and the spleen, and numbers of spleen cells were also determined.
(§3) BALB/c mice were immunized with SRBC (5×10^7 cells/mouse, intravenous administration), and the compound in the Example 5 was administered intraperitoneally for 4 consecutive days from the day of immunization. Four days after immunization (the next day of the final administration), the spleen was resected, and the anti-sheep red blood cell antibody-producing cells were determined by the direct plaque method. At the same time, the body weight of the mouse, wet weight of the thymus and the spleen, and numbers of spleen cells were also determined.

[4] = body weight, wet weight of thymus and spleen, number of spleen cells in SRBC-immunized mice; type: in vivo, mouse; settings: Experiment 2; 10 mg/kg/day
Description: as §1, §2, §3

`CCCCCCC(=O)CCCCCCCCCC(O)C(O)C(N)(CO)C(=O)O` (centres unmarked) [Example 5] gave an inhibition at 0.0001 µg/mL ([1]; Homo sapiens, Lymphocyte, donor A/donor B, 0.0001 μg/ml, read-out: Suppression) of 14.4%, an inhibition at 0.001 µg/mL ([1]; Homo sapiens, Lymphocyte, donor A/donor B, 0.001 μg/ml, read-out: Suppression) of 42.8% and an inhibition at 0.01 µg/mL ([1]; Homo sapiens, Lymphocyte, donor A/donor B, 0.01 μg/ml, read-out: Suppression) of 59.4%. It also gave an inhibition at 0.1 µg/mL ([1]; Homo sapiens, Lymphocyte, donor A/donor B, 0.1 μg/ml, read-out: Suppression) of 87.1%, an inhibition at 1 µg/mL ([1]; Homo sapiens, Lymphocyte, donor A/donor B, 1 μg/ml, read-out: Suppression) of 85.4% and an inhibition at 10 µg/mL ([1]; Homo sapiens, Lymphocyte, donor A/donor B, 10 μg/ml, read-out: Suppression) of 99.8%. For the same compound, the inhibition at 10 pg/mL ([1]; Homo sapiens, Lymphocyte, donor C/donor D, 0.00001 μg/ml, read-out: Suppression) was 32.3%, the inhibition at 0.0001 µg/mL ([1]; Homo sapiens, Lymphocyte, donor C/donor D, 0.0001 μg/ml, read-out: Suppression) was 54.7% and the inhibition at 0.001 µg/mL ([1]; Homo sapiens, Lymphocyte, donor C/donor D, 0.001 μg/ml, read-out: Suppression) was 48.3%. For the same compound, the inhibition at 0.01 µg/mL ([1]; Homo sapiens, Lymphocyte, donor C/donor D, 0.01 μg/ml, read-out: Suppression) was 58.1%, the inhibition at 0.1 µg/mL ([1]; Homo sapiens, Lymphocyte, donor C/donor D, 0.1 μg/ml, read-out: Suppression) was 84.7% and the inhibition at 1 µg/mL ([1]; Homo sapiens, Lymphocyte, donor C/donor D, 1 μg/ml, read-out: Suppression) was 80.5%. It also gave an IC50 ([1]; Lymphocyte, human allogenic MLR, read-out: 50%-inhibition concentration (IC50)) of 0.35 ng/mL (≈ 0.867 nM), a 3H-thymidine uptake ([1]; donor A/donor B, 0.0001 μg/ml) of 20789 cpm and a 3H-thymidine uptake ([1]; donor A/donor B, 0.001 μg/ml) of 14690 cpm. The 3H-thymidine uptake ([1]; donor A/donor B, 0.01 μg/ml) was 11130 cpm, the 3H-thymidine uptake ([1]; donor A/donor B, 0.1 μg/ml) was 5181 cpm and the 3H-thymidine uptake ([1]; donor A/donor B, 1 μg/ml) was 5548 cpm. It also gave a 3H-thymidine uptake ([1]; donor A/donor B, 10 μg/ml) of 2439 cpm, a 3H-thymidine uptake ([1]; donor C/donor D, 0.00001 μg/ml) of 11827 cpm and a 3H-thymidine uptake ([1]; donor C/donor D, 0.0001 μg/ml) of 7941 cpm. The 3H-thymidine uptake ([1]; donor C/donor D, 0.001 μg/ml) was 9057 cpm, the 3H-thymidine uptake ([1]; donor C/donor D, 0.01 μg/ml) was 7346 cpm and the 3H-thymidine uptake ([1]; donor C/donor D, 0.1 μg/ml) was 2746 cpm. It also gave a 3H-thymidine uptake ([1]; donor C/donor D, 1 μg/ml) of 3466 cpm, a 3H-thymidine uptake ([2]; 0.1 μg/ml) of 26108 cpm and a 3H-thymidine uptake ([2]; 1 μg/ml) of 1532 cpm. The inhibition at 0.1 µg/mL ([2]; Mus musculus, CTLL-2, 0.1 μg/ml, read-out: Suppression) was 13.5%, the inhibition at 1 µg/mL ([2]; Mus musculus, CTLL-2, 1 μg/ml) was 95.1% and the “Number of PFC per 1 × 10^7 cell” value [3] was 5.6 ± 1.7 × 10^3 /1 × 10^7 cell. The “Number of PFC per spleen” value [3] was 12.9 ± 3.9 × 10^4 /spleen, the Body weight [4] was 24 ± 1 g and the “Number of spleen cells” value [4] was 2.3 ± 0.3 × 10^8 cell. It also gave a Wet weight spleen [4] of 239 ± 40 mg and a Wet weight thymus [4] of 52 ± 5 mg.
